The results in this text go back to the supplement of paper PMC11208160.

A short description of the data set: recombinant UMI read abundance after kanamycin selection (control-corrected) (log10(CPM+1)); higher = more efficient recombination; extreme values may be limits of the assay; sequences stand for … in AGTGCAGAGAAAATCGGCCAGTTTTCTCTGCCTGCAGTCCGCATGCCGTGGGACCCCTTGGGTTCTAACCTGTTGCCTAGATTTATGCAGCGGACTGCCTTTCTCCCAAAGTGATAAACCGG…AGGTTGGTTTCACT; site = the 11-nt donor. Summed up:
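Counts of recombinant UMIs were reported as log10(CPM+1). Before that, they were converted to CPM, averaged over replicates and scaled using control-derived factors. They came from PCR across the donor–target junction after Escherichia coli carrying the pair library and target plasmid was plated on IPTG (0.07 mM) plus kanamycin, or unselected, in two replicates each.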
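Note: IS621 bridge recombinase in Escherichia coli cells against a fixed T5 target plasmid.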

Consider “CCAATCACATGGACCGGTTTTCCCGGTAATCCGTATTTGTT (site CCAATCACTAA)”, for which the “recombinant UMI read abundance (log10)” value amounted to 0.84.

Consider “CCACGAACATGGACCGGTTTTCCCGGTAATCCGTATTTGTC (site ACACGAACTGA)”, for which the “recombinant UMI read abundance (log10)” value was 0.

As to “CCACGAACATGGACCGGTTTTCCCGGTAATCCGTATTTGTC (site CCACGAACTGA)”, the “recombinant UMI read abundance (log10)” value was determined as 0.774.

For “CCACGAACATGGACCGGTTTTCCCGGTAATCCGTATTTGTC (site GCACGAACTGA)”, the “recombinant UMI read abundance (log10)” value is 0.

Regarding “CCACGAACATGGACCGGTTTTCCCGGTAATCCGTATTTGTC (site TCACGAACTGA)”, the “recombinant UMI read abundance (log10)” value stood at 0.

As to “CCAGCAGCATGGACCGGTTTTCCCGGTAATCCGTATTTGTC (site CCAGCAGCTGA)”, the “recombinant UMI read abundance (log10)” value worked out at 0.4.

For the sequence “CCAGCATCATGGACCGGTTTTCCCGGTAATCCGTATTTGCT (site CCAGCATCTAG)”, the “recombinant UMI read abundance (log10)” value is 0.0975.

Turning to “CCAGCATCATGGACCGGTTTTCCCGGTAATCCGTATTTGCT (site CGATCATCTAG)”, the “recombinant UMI read abundance (log10)” value was determined as 0.

As to “CCAGCTGCATGGACCGGTTTTCCCGGTAATCCGTATTTGCC (site CCAGCTGCTGG)”, the “recombinant UMI read abundance (log10)” value worked out at 1.26.

For “CCAGGACCATGGACCGGTTTTCCCGGTAATCCGTATTTGGG (site CAAGGACCTCC)”, the “recombinant UMI read abundance (log10)” value came to 0.0304.

Consider “CCAGGACCATGGACCGGTTTTCCCGGTAATCCGTATTTGGG (site CCAGGACCTCC)”, for which the “recombinant UMI read abundance (log10)” value is 0.00761.

With “CCAGGACCATGGACCGGTTTTCCCGGTAATCCGTATTTGGG (site CGAGGACCTCC)”, the “recombinant UMI read abundance (log10)” value is 0.

For the sequence “CCAGGACCATGGACCGGTTTTCCCGGTAATCCGTATTTGGG (site CTAGGACCTCC)”, the “recombinant UMI read abundance (log10)” value came out at 0.00678.

“CCAGGTCCATGGACCGGTTTTCCCGGTAATCCGTATTTGCA (site CCAGGTCCTTG)”: the “recombinant UMI read abundance (log10)” value worked out at 0.421.

For “CCAGGTCCATGGACCGGTTTTCCCGGTAATCCGTATTTGCA (site CCCGGTCCTTG)”, the “recombinant UMI read abundance (log10)” value is 0.

In the case of “CCAGGTCCATGGACCGGTTTTCCCGGTAATCCGTATTTGCA (site CCGGGTCCTTG)”, the “recombinant UMI read abundance (log10)” value came to 0.

Turning to “CCAGGTCCATGGACCGGTTTTCCCGGTAATCCGTATTTGCA (site CCTGGTCCTTG)”, the “recombinant UMI read abundance (log10)” value amounted to 0.

Take “CCAGGTGCATGGACCGGTTTTCCCGGTAATCCGTATTTGAG (site CCAGGTGCTAT)”: the “recombinant UMI read abundance (log10)” value came out at 0.721.

Take “CCAGGTGCATGGACCGGTTTTCCCGGTAATCCGTATTTGAG (site CCAGGTGCTCT)”: the “recombinant UMI read abundance (log10)” value turned out to be 0.843.

For “CCAGGTGCATGGACCGGTTTTCCCGGTAATCCGTATTTGAG (site CCAGGTGCTGT)”, the “recombinant UMI read abundance (log10)” value was 0.

Take “CCAGGTGCATGGACCGGTTTTCCCGGTAATCCGTATTTGAG (site CCAGGTGCTTT)”: the “recombinant UMI read abundance (log10)” value was 0.424.

Turning to “CCAGGTTCATGGACCGGTTTTCCCGGTAATCCGTATTTGAT (site CCAGGTACTAT)”, the “recombinant UMI read abundance (log10)” value turned out to be 0.00235.

With “CCAGGTTCATGGACCGGTTTTCCCGGTAATCCGTATTTGAT (site CCAGGTCCTAT)”, the “recombinant UMI read abundance (log10)” value worked out at 0.00776.

“CCAGGTTCATGGACCGGTTTTCCCGGTAATCCGTATTTGAT (site CCAGGTGCTAT)”: the “recombinant UMI read abundance (log10)” value came out at 0.

Regarding “CCAGGTTCATGGACCGGTTTTCCCGGTAATCCGTATTTGAT (site CCAGGTTCTAT)”, the “recombinant UMI read abundance (log10)” value amounted to 0.602.

Consider “CCAGGTTCATGGACCGGTTTTCCCGGTAATCCGTATTTGTC (site CCAGGTTCTGA)”, for which the “recombinant UMI read abundance (log10)” value stood at 2.24.

In the case of “CCAGTCACATGGACCGGTTTTCCCGGTAATCCGTATTTGGG (site CAAGTCACTCC)”, the “recombinant UMI read abundance (log10)” value was found to be 0.0155.

Consider “CCAGTCACATGGACCGGTTTTCCCGGTAATCCGTATTTGGG (site CCAGTCACTCC)”, for which the “recombinant UMI read abundance (log10)” value came to 0.026.

Consider “CCAGTCACATGGACCGGTTTTCCCGGTAATCCGTATTTGGG (site CGAGTCACTCC)”, for which the “recombinant UMI read abundance (log10)” value came out at 0.00845.

As to “CCAGTCACATGGACCGGTTTTCCCGGTAATCCGTATTTGGG (site CTAGTCACTCC)”, the “recombinant UMI read abundance (log10)” value was found to be 0.0251.

Take “CCAGTTGCATGGACCGGTTTTCCCGGTAATCCGTATTTGAT (site CCAGATGCTAT)”: the “recombinant UMI read abundance (log10)” value was 0.00647.

As to “CCAGTTGCATGGACCGGTTTTCCCGGTAATCCGTATTTGAT (site CCAGCTGCTAT)”, the “recombinant UMI read abundance (log10)” value stood at 0.249.

Take “CCAGTTGCATGGACCGGTTTTCCCGGTAATCCGTATTTGAT (site CCAGGTGCTAT)”: the “recombinant UMI read abundance (log10)” value was 0.00995.

As for “CCAGTTGCATGGACCGGTTTTCCCGGTAATCCGTATTTGAT (site CCAGTTGCTAT)”, the “recombinant UMI read abundance (log10)” value amounted to 1.42.

For “CCATAAACATGGACCGGTTTTCCCGGTAATCCGTATTTGCT (site CCATAAACTAG)”, the “recombinant UMI read abundance (log10)” value came out at 1.06.

With “CCATACCCATGGACCGGTTTTCCCGGTAATCCGTATTTGCG (site CCATACCCTCG)”, the “recombinant UMI read abundance (log10)” value came to 0.287.

For the sequence “CCATACCCATGGACCGGTTTTCCCGGTAATCCGTATTTGTG (site CCATACCCTCA)”, the “recombinant UMI read abundance (log10)” value amounted to 0.00448.

As for “CCATCGACATGGACCGGTTTTCCCGGTAATCCGTATTTGTT (site CAATCGACTAA)”, the “recombinant UMI read abundance (log10)” value came to 0.00346.

Regarding “CCATCGACATGGACCGGTTTTCCCGGTAATCCGTATTTGTT (site CCATCGACTAA)”, the “recombinant UMI read abundance (log10)” value is 0.266.

“CCATCGACATGGACCGGTTTTCCCGGTAATCCGTATTTGTT (site CGATCGACTAA)”: the “recombinant UMI read abundance (log10)” value came to 0.

Consider “CCATCGACATGGACCGGTTTTCCCGGTAATCCGTATTTGTT (site CTATCGACTAA)”, for which the “recombinant UMI read abundance (log10)” value is 0.0452.

Regarding “CCATGAGCATGGACCGGTTTTCCCGGTAATCCGTATTTGAG (site CCATGAGCTCT)”, the “recombinant UMI read abundance (log10)” value is 0.662.

For “CCATGATCATGGACCGGTTTTCCCGGTAATCCGTATTTGAA (site CCATGATCTTT)”, the “recombinant UMI read abundance (log10)” value turned out to be 1.02.

In the case of “CCATTATCATGGACCGGTTTTCCCGGTAATCCGTATTTGCT (site CCATTATCTAG)”, the “recombinant UMI read abundance (log10)” value was 1.49.

Take “CCATTATCATGGACCGGTTTTCCCGGTAATCCGTATTTGCT (site CGATCATCTAG)”: the “recombinant UMI read abundance (log10)” value was 0.

Turning to “CCATTCTCATGGACCGGTTTTCCCGGTAATCCGTATTTGGG (site CCATTCTCTCC)”, the “recombinant UMI read abundance (log10)” value is 0.

As to “CCATTCTCATGGACCGGTTTTCCCGGTAATCCGTATTTGGG (site CCCTTCTCTCC)”, the “recombinant UMI read abundance (log10)” value turned out to be 0.00367.

As for “CCATTCTCATGGACCGGTTTTCCCGGTAATCCGTATTTGGG (site CCGTTCTCTCC)”, the “recombinant UMI read abundance (log10)” value turned out to be 0.00306.

Consider “CCATTCTCATGGACCGGTTTTCCCGGTAATCCGTATTTGGG (site CCTTTCTCTCC)”, for which the “recombinant UMI read abundance (log10)” value was 0.0196.

As to “CCATTTACATGGACCGGTTTTCCCGGTAATCCGTATTTGCT (site CCATTTACTAG)”, the “recombinant UMI read abundance (log10)” value was 0.933.

Consider “CCATTTACATGGACCGGTTTTCCCGGTAATCCGTATTTGCT (site CCCTTTACTAG)”, for which the “recombinant UMI read abundance (log10)” value turned out to be 0.

With “CCATTTACATGGACCGGTTTTCCCGGTAATCCGTATTTGCT (site CCGTTTACTAG)”, the “recombinant UMI read abundance (log10)” value was determined as 0.

As to “CCATTTACATGGACCGGTTTTCCCGGTAATCCGTATTTGCT (site CCTTTTACTAG)”, the “recombinant UMI read abundance (log10)” value worked out at 0.00937.

On to “CCCAACCCATGGACCGGTTTTCCCGGTAATCCGTATTTGTG (site CCCAACCCTCA)”, for which the “recombinant UMI read abundance (log10)” value is 0.0205.

As for “CCCACCGCATGGACCGGTTTTCCCGGTAATCCGTATTTGCC (site CCCACCGCTGG)”, the “recombinant UMI read abundance (log10)” value came out at 0.815.

“CCCAGATCATGGACCGGTTTTCCCGGTAATCCGTATTTGGA (site CCCAGATCTTC)”: the “recombinant UMI read abundance (log10)” value is 0.0263.

With “CCCAGGACATGGACCGGTTTTCCCGGTAATCCGTATTTGCG (site CCCAGGACTCG)”, the “recombinant UMI read abundance (log10)” value stood at 0.893.

For the sequence “CCCAGGGCATGGACCGGTTTTCCCGGTAATCCGTATTTGTG (site CCCAGGGCTCA)”, the “recombinant UMI read abundance (log10)” value is 0.475.

In the case of “CCCATATCATGGACCGGTTTTCCCGGTAATCCGTATTTGCC (site CCCATATCTGA)”, the “recombinant UMI read abundance (log10)” value amounted to 0.

As for “CCCATATCATGGACCGGTTTTCCCGGTAATCCGTATTTGCC (site CCCATATCTGC)”, the “recombinant UMI read abundance (log10)” value was determined as 0.

Consider “CCCATATCATGGACCGGTTTTCCCGGTAATCCGTATTTGCC (site CCCATATCTGG)”, for which the “recombinant UMI read abundance (log10)” value is 0.328.

Regarding “CCCATATCATGGACCGGTTTTCCCGGTAATCCGTATTTGCC (site CCCATATCTGT)”, the “recombinant UMI read abundance (log10)” value was 0.454.

Take “CCCATATCATGGACCGGTTTTCCCGGTAATCCGTATTTGTG (site CCCATATCTAA)”: the “recombinant UMI read abundance (log10)” value came to 0.00783.

As to “CCCATATCATGGACCGGTTTTCCCGGTAATCCGTATTTGTG (site CCCATATCTCA)”, the “recombinant UMI read abundance (log10)” value turned out to be 0.356.

As for “CCCATATCATGGACCGGTTTTCCCGGTAATCCGTATTTGTG (site CCCATATCTGA)”, the “recombinant UMI read abundance (log10)” value was determined as 0.

Take “CCCATATCATGGACCGGTTTTCCCGGTAATCCGTATTTGTG (site CCCATATCTTA)”: the “recombinant UMI read abundance (log10)” value is 0.0103.

Consider “CCCATGTCATGGACCGGTTTTCCCGGTAATCCGTATTTGTC (site CCCATATCTGA)”, for which the “recombinant UMI read abundance (log10)” value is 0.

With “CCCATGTCATGGACCGGTTTTCCCGGTAATCCGTATTTGTC (site CCCATCTCTGA)”, the “recombinant UMI read abundance (log10)” value was 0.
